Laboratory results published in ChEMBL document CHEMBL5260796, “Thiazolidinediones and PPAR orchestra as antidiabetic agents: From past to present” (Eur J Med Chem, 2017).

Assays:
Rattus norvegicus = test: Antidiabetic activity against STZ-induced diabetic Sprague-Dawley rat assessed as reduction in fasting blood glucose level at 0.1 mg/kg,po for 2 months; assay type: functional; set-up: scale not given: the % may be the effect or the level left; conditions: 1460 h
Mus musculus = test: Antidiabetic activity against diabetic KKAy mouse model assessed as decrease in plasma glucose level at 50 mg/kg,po by glucose analyzer; assay type: functional; set-up: scale not given: the % may be the effect or the level left

| SMILES | Activity (Rattus norvegicus) [%] | Activity (Mus musculus) [%] |
| --- | --- | --- |
| Cc1oc(-c2ccccc2)nc1CCC(=O)c1ccc(CC2SC(=O)NC2=O)cc1 (configuration not stated) [DARGLITAZONE] | 80 |  |
| Cc1c(C)c2c(c(C)c1O)CCC(C)(COc1ccc(CC3SC(=O)NC3=O)cc1)O2 (configuration not stated) [TROGLITAZONE] |  | 38.5 |
